Measured values as given in US6538037B2, “Methods for preparation and use of 1α,24(S)-dihydroxyvitamin D2” (Bone Care International, Inc., priority 1991, dated 2003).
Like-named read-outs stand apart in the source and are kept apart here.

How the values were obtained:
[1] = molecular target: T1, vitamin D serum binding protein (DBP) (Rattus norvegicus, UniProt P04276); experiment: Affinity for vitamin D serum binding protein using vitamin D deficient rat serum
T1 construct: assessed using vitamin D deficient rat serum; from tissue; host or cells: vitamin D deficient rat serum
T1 sequence (P04276 17-476): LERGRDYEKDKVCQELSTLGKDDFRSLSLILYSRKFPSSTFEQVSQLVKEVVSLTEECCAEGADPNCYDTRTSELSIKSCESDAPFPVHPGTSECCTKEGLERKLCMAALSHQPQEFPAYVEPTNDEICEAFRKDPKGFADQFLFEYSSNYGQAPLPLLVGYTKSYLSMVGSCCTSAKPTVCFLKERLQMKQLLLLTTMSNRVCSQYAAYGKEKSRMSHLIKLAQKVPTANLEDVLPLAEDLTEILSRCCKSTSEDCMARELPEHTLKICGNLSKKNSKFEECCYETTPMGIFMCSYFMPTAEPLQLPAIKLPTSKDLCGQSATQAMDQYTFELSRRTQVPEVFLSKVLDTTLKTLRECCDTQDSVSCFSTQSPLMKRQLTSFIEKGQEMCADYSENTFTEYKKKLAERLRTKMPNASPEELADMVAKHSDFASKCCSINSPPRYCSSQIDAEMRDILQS
Source text: In addition, the weak binding by the DBP was indicative of more rapid clearance, allowing for low toxicity.

[2] = Preventive treatment of bone mass loss in postmenopausal osteoporotic women; assay type: in vivo, human; conditions: at or above 1.0 μg/day, 24 to 36 months
Procedure: A clinical study is conducted with postmenopausal osteoporotic out-patients having ages between 55 and 75 years. The study involves up to 120 patients randomly divided into three treatment groups and continues for 24 to 36 months. Two of the treatment groups receive constant dosages of 1α,24(S)-dihydroxyvitamin D2 (u.i.d.; two different dose levels at or above 1.0 μg/day) and the other group receives a matching placebo. All patients maintain a normal intake of dietary calcium (500 to 800 mg/day) and refrain from using calcium supplements. Efficacy is evaluated by pre-and post-treatment comparisons of the patient groups with regard to (a) total body calcium retention, and (b) radial and spinal bone mineral density as determined by dual-photon absorptiometry (DPA) or dual-energy x-ray absorptiometry (DEXA). Safety is evaluated by comparisons of urinary hydroxyproline excretion, serum and urine calcium levels, creatinine clearance, blood urea nitrogen, and other routine determinations.

[3] = Dermatological testing, topical treatment of dermatitis; assay type: in vivo, human; conditions: ointment 10 μg per gram, twice daily
Procedure: Compositions containing 1α,24(S)-dihydroxyvitamin D2 are evaluated for therapeutic efficacy of the composition in the topical treatment of dermatitis (contact and ectopic). The composition evaluated is an ointment containing 10 μg of 1α,24-dihydroxyvitamin D2 per gram of ointment in a petrolatum-almond oil base. […] The patients are treated in an out-patient clinic. They are instructed to use the preparation two times a day.
The ointment is as far as possible applied to a single lesion, or to an area of the disease. The ointment and its container are weighed before the treatment starts and returned with any unused contents for reweighing at the end of the treatment.
The area of the lesion treated is estimated and recorded, and the lesion is photographed as required, together with suitable “control” lesions. The latter are preferably lesions of similar size and stage of development, either in the vicinity of the treated lesion or symmetrically contralateral. Relevant details of the photographic procedure are recorded so as to be reproduced when the lesions are next photographed (distance, aperture, angle, background, etc.). The ointment is applied twice daily and preferably left uncovered. The “control” lesions are left untreated, but if this is not possible, the treatment used on them is noted. […]

[4] = system: Human keratinocytes; experiment: Epidermal cell differentiation and proliferation testing; assay type: cell-based; conditions: 0.05 to 5 μg/ml, versus control cultures
Procedure: Human keratinocytes are cultured according to known modifications of the system originally described by Rheinwald and Green (Cell, vol.6, p.331 (1975)). The 1α,24(S)-dihydroxyvitamin D2, dissolved in ethanol, is added to cells to yield a variety of concentrations between 0.05 and 5 μg/ml with the ethanol concentration not to exceed 0.5% v/v. Control cultures are supplemented with ethanol at a final concentration of 0.5% v/v. Differentiation and proliferation of epidermal cells in culture is examined by:
1. quantitation of cornified envelopes;
2. quantitation of cell density of cells attached to disks;
3. monitoring transglutaminase activity; or
4. monitoring DNA synthesis by incorporation of ^3H-thymidine.

[5] = system: HL-60 promyelocytes; experiment: HL-60 cell differentiation assay; assay type: cell-based; conditions: dose-response study
Procedure: A dose-response study is conducted with 1α,24(S)-(OH)2D2 in the HL-60 cell differentiation assay as described by DeLuca and Ostrom (DeLuca, H. F. and Ostrem, V. K., Prog. Clin. Biol. Res., vol. 259, pp. 41-55 (1988)). In this study, 1α,25-(OH)2D3 is used as a positive control and appropriate solvents are used as negative controls. The following variables are evaluated: nonspecific acid esterase activity, nitroblue tetrazolium (NBT) reduction, and thymidine incorporation.

[6] = system: vitamin D receptor positive tumor; experiment: General treatment of cancers, open-label study; assay type: in vivo, human; conditions: after 18 months
Source text: Patients with a known vitamin D receptor positive tumor (e.g., adenocarcinoma of the prostate, breast, lung, colon or pancreas, or transitional cell carcinoma of the bladder, or melanoma) participate in an open-label study of 1α,24(S)-(OH)2D2. Patients are placed on a reduced calcium diet prior to treatment, to help minimize intestinal absorption and allow ever higher doses of 1α,24(S)-dihydroxyvitamin D2. This reduced calcium diet may be continued for the duration of treatment, and for one week after the last dose of the 1α,24(S)-dihydroxyvitamin D2. The diet ideally restricts daily calcium intake to 400-500 mg. Patients also discontinue use of any vitamin supplements or vitamin D replacement therapies. Each patient is also asked to drink 4-6 cups of fluid more than usual intake to assure adequate oral hydration.
Each subject is monitored at regular intervals for: (1) hypercalcemia, hyperphosphatemia, hypercalciuria, hyperphosphaturia and other toxicity; (2) evidence of changes in the progression of metastatic disease; and (3) compliance with the prescribed test drug dosage.
The dosing regimen is typically on a daily dose basis of 10 μg or 20 μg per day to about 100 μg/day for 24 months. Alternatively, a non-daily dosing regimen can be used, e.g., 40 μg given every other day, 100 μg given once a week. […]

**Q.** For C=C1/C(=C\C=C2/CCC[C@]3(C)[C@@H]([C@H](C)/C=C/[C@@](C)(O)C(C)C)CC[C@@H]23)C[C@@H](O)C[C@@H]1O [1α,24(S)-(OH)2D2, 1α,24(S)-dihydroxyvitamin D2], which “binding affinity for the vitamin D serum binding protein (in words)” value [1] is on record?
**A.** relatively poor binding affinity

**Q.** What about the “binding affinity for the vitamin D serum binding protein (in words)” value ([1]; listed as 1α,24(S)-dihydroxyvitamin D2) of the same compound?
**A.** more weakly than does 1,25-(OH)2D3

**Q.** And the “binding of DBP relative to 25-OH-D3” value ([1]; vitamin D deficient rat serum)?
**A.** at least 1000 times weaker

**Q.** What about the “incidence of hypercalcemia or hypercalciuria” value [2] of the same compound?
**A.** insignificant incidence of hypercalcemia or hypercalciuria

**Q.** And the “total body calcium, radial and spinal bone densities relative to placebo” value [2]?
**A.** significantly higher total body calcium, and radial and spinal bone densities

**Q.** And the incidence of hypercalcemia [3]?
**A.** insignificant incidence of hypercalcemia

**Q.** What about the “lesion severity scores (erythema, scaling, thickness; 0 to 3)” value ([3]; four to six weeks) of the same compound?
**A.** lower scores than the control lesions

**Q.** What about the “DNA synthesis by incorporation of 3H-thymidine” value [4] of the same compound?
**A.** lower DNA synthesis

**Q.** And the “cell density of cells attached to disks” value [4]?
**A.** fewer attached cells

**Q.** And the cornified envelopes [4]?
**A.** more cornified envelopes

**Q.** And the transglutaminase activity [4]?
**A.** higher transglutaminase activity

**Q.** And the “differentiation of HL-60 promyelocytes to monocytes” value [5]?
**A.** potent activity in promoting differentiation

**Q.** And the “progress of metastatic disease (CAT scans, X-rays, bone scans)” value ([6]; higher dosage)?
**A.** stable disease and partial or complete remission in many patients

**Q.** And the “progress of metastatic disease (CAT scans, X-rays, bone scans)” value ([6]; lower dosage)?
**A.** partial remission in many patients
